Results reported in US11698366B2, “Human tissue stem cell and use thereof” (KEIO UNIVERSITY, priority 2017, dated 2023).

Experiments:
[1] = test system: cancer stem cell; test: LGR5-iCT/CMV-GFP organoid screening, tdTomato fluorescence; format: cell-based, human; details: final concentration shown in FIG. 8; DMSO control
From the text: In addition, Irinotecan, Cetuximab, and Oxaliplatin are existing anticancer drugs. In addition, “DMSO” refers to dimethyl sulfoxide added to the medium instead of the anticancer drug as a control.

[2] = test system: cancer cell; test: LGR5-iCT/CMV-GFP organoid screening, GFP fluorescence; format: cell-based, human; details: final concentration shown in FIG. 8; DMSO control
From the text: A CMV-GFP construct was further introduced into the LGR5-iCT organoid prepared in Experimental Example 4. In the CMV-GFP construct, a GFP gene was linked downstream of the CMV promoter, which is the forced expression promoter. Therefore, regardless of whether or not the LGR5 gene was expressed, the GFP gene was expressed in all cells and emitted fluorescence of the GFP protein. Hereinafter, these organoids may be referred to as “LGR5-iCT/CMV-GFP organoids” in some cases.
In the LGR5-iCT/CMV-GFP organoid, survival activity of the cancer cell can be observed by fluorescence of GFP, and survival activity of the cancer stem cell can be observed by fluorescence of tdTomato.
Using the LGR5-iCT/CMV-GFP organoid, high-throughput screening of existing anticancer drugs used for the treatment of colon cancer was performed, and the effects on the cancer cells and the cancer stem cells were examined.
FIG. 8 is a micrograph of an organoid showing a typical result. In FIG. 8, “BRIGHT FIELD” indicates a bright field observation image. “CMV-GFP” indicates a fluorescence micrograph obtained by observing GFP fluorescence”. “LGR5-tdTomato” indicates a fluorescence micrograph obtained by observing tdTomato fluorescence. “Merge” indicates the result obtained by synthesizing the bright-field observation image, the GFP fluorescence micrograph, and the micrograph of tdTomato fluorescence. […]

[3] = test system: tumor derived from LGR5-iCT organoid; test: Tumor size of LGR5-iCT organoid xenograft measured regularly; format: in vivo, NOG mice
Procedure: The LGR5-iCT organoid was xenografted under the renal capsule of NOG mice (7-12 weeks old, male) by the same method as Experimental Example 2. Subsequently, after a tumor was formed, the AP20187 was administered to mice daily for 5 days. In addition, control mice to which only a solvent was administered daily for 5 days. Thereafter, a tumor size of each mouse was measured regularly.
In addition, FIG. 6 is a graph showing a result obtained by measuring the size of a tumor of each of a mouse (Dimerizer) to which the AP20187 is administered and the control mouse (Vehicle), regularly. As a result, it was confirmed that the tumor size was reduced by the administration of the AP20187.
In addition, the inventors examined the expression of the LGR5 gene in the tumor tissue after the administration of the AP20187. […] In addition, it was also clear that a re-increase of the tumor size corresponds to re-expression of the LGR5 gene.

[4] = test system: LGR5-positive cancer stem cell; test: Tumor tissue sections of LGR5-iCT organoid xenograft (tdTomato fluorescence, KRT20 immunostaining); format: in vivo, NOG mice; details: tumor section on the 5th day from start of administration, daily for 5 days
From the text: First, an IRES-iCaspase9-T2A-tdTomato construct was introduced into the LGR5 gene locus of the cultured organoid derived from colon cancer by the same method as in Experimental Example 1. Hereinafter, these organoids may be referred to as “LGR5-iCT organoids” in some cases.
iCaspase 9 is a drug-induced suicide gene. The iCaspase 9 has no activity in a monomer, but forms a dimer in the presence of AP20187 (dimerizer, APExBIO) to induce apoptosis. Also, TdTomato is a kind of red fluorescent protein (RFP).
FIG. 4 is a diagram illustrating a structure of the completed LGR5 gene locus and behavior of the drug-induced suicide gene. […] Therefore, it is possible to confirm the presence of the LGR5-positive cell by observing the fluorescence of the tdTomato. […] As a result, the fluorescence of the tdTomato becomes not observed.
The LGR5-iCT organoid was xenografted under the renal capsule of NOG mice (7-12 weeks old, male) by the same method as Experimental Example 2. […] Thereafter, a tumor size of each mouse was measured regularly.
FIGS. 5 (a) and 5(b) show fluorescence micrographs of a result obtained by extracting a tumor of each mouse on the 5th day from the start of administration of the AP20187 to prepare a tissue section and detecting the fluorescence of the tdTomato and KRT20 as a differentiation marker by immunostaining. […]

Row | Compound | effect against the cancer stem cell (tdTomato fluorescence) [1] | effect against the cancer cell (GFP fluorescence) [2] | tumor size ([3]; after administration daily for 5 days) | tumor growth ([3]; continuous cancer stem cell treatment, tumor not completely cured) | expression of the LGR5 gene in the tumor tissue after administration ([3]; expression once disappeared, corresponds to re-increase of tumor size) | tumor size, eventually ([3]; later after the end of the 5-day administration) | effect on LGR5-negative cell [4] | effect on LGR5-positive cancer stem cell (apoptosis) [4]
1 | O=C1[O][Pt]2([NH][C@@H]3CCCC[C@H]3[NH]2)[O]C1=O [oxaliplatin] | kills | kills | – | – | – | – | – | –
2 | CCc1c2c(nc3ccc(OC(=O)N4CCC(N5CCCCC5)CC4)cc13)-c1cc3c(c(=O)n1C2)COC(=O)[C@]3(O)CC [irinotecan] | not effective | showed a growth suppression effect | – | – | – | – | – | –
3 | CC[C@H](C(=O)N1CCCC[C@H]1C(=O)O[C@H](CCc1ccc(OC)c(OC)c1)c1cccc(OCC(=O)NCC(CNC(=O)COc2cccc([C@@H](CCc3ccc(OC)c(OC)c3)OC(=O)[C@@H]3CCCCN3C(=O)[C@@H](CC)c3cc(OC)c(OC)c(OC)c3)c2)CN(C)C)c1)c1cc(OC)c(OC)c(OC)c1 [AP20187] | – | – | reduced | could suppress tumor growth | recognized again | increased again | remained intact | completely died
